Measured values from USRE35706E, “Lipophila derivatives of muramylpeptides having properties of activating macrophages and compositions containing them” (priority 1984, dated 1997).
“And” between values parts separate entries of the source, which are not always exact repeats. Equal entries are not always repeated.

How the values were obtained:
[1] = Retention of the muramylpeptide in liposomes suspended in MEM-FCS medium; format: physicochemical; conditions: liposomes in MEM-FCS medium at 37° C.
Description: Liposomes produced under the same conditions, but with muramylpeptides labeled with tritium have enabled the following observations. […] The incorporation of the MDP-GDP and the stability of the latter, has also been verified in reaction tests with anti-MDP monoclonal antibodies. After incubation of these liposomes in the same medium at 37° C. for 72 hours, there is observed a constant agglutination of the liposomes with the antibody (95% of the liposome being agglutinated), this observation bearing witness to the practical absence of any loss of MDP-GDP. […] The leakage, if it was produced, would have been manifested by a decrease in the intensity of agglutination with time.

Klebsiella pneumoniae = experiment: Anti-infectious activity in mice infected with Klebsiella pneumoniae; format: in vivo; conditions: for protective activity against lethal Klebsiella pneumoniae infection in the mouse (in words): summary of observations
[2] = Pyrogenicity measurements on rabbits (European Pharmacopoea); format: in vivo, rabbit; conditions: 1 mg/kg; groups of three rabbits, one value per animal; listed as 6 -0-GDP-MDPG-OnBu
Source text: Certain of the compounds according to the invention show at relatively high doses, a certain pyrogenicity, whose impact is however reduced, taking into account the particularly higher therapeutic index from which they appear to benefit. This being the case, the muramylpeptides in which the group of modification by the two lipophile chains is fixed to the 6 position of the saccharide group, and of which the peptide chain is terminated by a glutamy-alpha-ester-gamma-amide group, are particularly advantageous by reason of their more reduced pyrogenicity. Testimony thereof is borne by comparative pyrogenicity measurements carried out on groups of three rabits with the two compounds more particularly studied, according to the procedure of the European Pharmacopoea, Vol. 2, 1971, pages 58-60. In fact, the following results are obtained, expressed by temperature observations observed in experimental animals to which had previously been administered 1 mg/kg of the compounds studied: for the MDP-GDP : 1°;0.9° and 1° C.; for the 6 -0-GDP-MDPG-OnBu : 0.2°; 0.3° and 0.5° C.

bovine serumal-bumin = experiment: Adjuvant activity in the Swiss female mouse (passive hemagglutination titer); format: in vivo; conditions: for Primary response 1.21: 100 micrograms with 500 micrograms bovine serum albumin at day 0, serums titrated in pools at day 21; for Secondary response 1.36: booster of 100 micrograms antigen alone at day 30, serums titrated separately at day 36
Description: At day 0, 100 micrograms of C474 were injected with 500 micrograms of bovine serumal-bumin. At day 30, the animals received a booster of 100 micrograms of antigen alone. The following results were obtained:
The titers are expressed in Log 2 of the passive hemagglutination titer. At day 21, the serums were titrated in pools; at day 36, they were titrated separately.

Candida albicans = experiment: Protective action in mice infected with Candida albicans; format: in vivo
[3] = Table X, 100 μg i.v. at day -1 (dose not given for MDP-L-Ala-GDP), 10^4 K. pneumoniae
[4] = Table XI, 100 μg/day/4 days i.v. (days -4, -3, -2 and -1), 2 × 10^6 Candida albicans

6-O-(beta, gamma-dipalmitoyl-L-glyceryl)-N-acetyl-muramyl-L-alanyl-D-glutamine-n-buty l-ester [6-O-GDP-MDPG-OnBu]
retention of the muramylpeptide in the liposomes (in words) [1]: Quite similar observations
Protection (%) (Klebsiella pneumoniae; Table VII, aqueous suspension, 100 μg i.v. at day -1, 10^4 K. pneumoniae): 68.7%
Survival (15 d) (Klebsiella pneumoniae; Table VII, aqueous suspension, 100 μg i.v. at day -1, mice infected i.v. with 10^4 K. pneumoniae): 22/32
protective activity against lethal Klebsiella pneumoniae infection in the mouse (in words) (Klebsiella pneumoniae): protective activity comparable
pyrogenicity, temperature observations in experimental animals [2]: 0.2 °C and 0.3 °C and 0.5 °C
Primary response 1.21 (bovine serumal-bumin): 2.64 Log 2 of the passive hemagglut
Secondary response 1.36 (bovine serumal-bumin): 8.6 Log 2 of the passive hemagglut

CCCCCCCCCCCCCCCC(=O)OCC(COC(=O)[C@H](C)NC(=O)CC[C@@H](NC(=O)[C@@H](C)NC(=O)[C@@H](C)O[C@H]1[C@H](O)[C@@H](CO)OC(O)[C@@H]1NC(C)=O)C(N)=O)OC(=O)CCCCCCCCCCCCCCC (stereo partly drawn) [MDP(D,D)-L-Ala-GDP, alpha (N-acetyl-muramyl-D-alanyl-D-isoglutaminyl-L-alanine) beta, gamma-dipalmitoyl-sn-glycerol]
retention of the muramylpeptide in the liposomes (in words) [1]: Quite similar observations
Protection (%) (Klebsiella pneumoniae; [3]): 25%
protective activity against lethal Klebsiella pneumoniae infection in the mouse (in words) (Klebsiella pneumoniae): although active, is less so than MDP-L-Ala-GDP

6-O-(beta, gamma-dipalmitoyl-L-glycerol)-capryl-N-acetyl-muramyl-L-alanyl-D-glutamine -n-butyl ester [6-0-GDP-aminocaproyl-MDPG-OnBu]
retention of the muramylpeptide in the liposomes (in words) [1]: Quite similar observations
Protection (%) (Klebsiella pneumoniae; [3]): 56%
Survival (15 d) (Klebsiella pneumoniae; [3]): 9/16

C[C@@H]1[C@H](O)[C@@H](C)/C=C/C=C/C=C/C=C/C=C/C=C/C=C/[C@H](O[C@@H]2O[C@H](C)[C@@H](O)[C@H](N)[C@@H]2O)C[C@@H]2O[C@](O)(C[C@@H](O)C[C@@H](O)[C@H](O)CC[C@@H](O)C[C@@H](O)CC(=O)O[C@H]1C)C[C@H](O)[C@H]2C(=O)O [Amphotericin B, reference compound]
Survival (10 d) (Candida albicans; Table XI, Amphotericin B 3 μg subcutaneously on the day of infection, 2 × 10^6 Candida albicans i.v.): 2/16

CCCCCCCCCCCCCCCC(=O)OCC(COC(=O)[C@H](C)NC(=O)CC[C@@H](NC(=O)[C@H](C)NC(=O)[C@@H](C)O[C@H]1[C@H](O)[C@@H](CO)OC(O)[C@@H]1NC(C)=O)C(N)=O)OC(=O)CCCCCCCCCCCCCCC (stereo partly drawn) [MDP-L-Ala-GDP, alpha (N-acetyl-muramyl-L-alanyl-D-isoglutaminyl-L-alanine), beta, gamma-dipalmitoyl-sn-glycerol]
retention of the muramylpeptide in the liposomes (in words) [1]: Quite similar observations
Protection (%) (Klebsiella pneumoniae; [3]): 63%

Gentamicin [reference compound]
Protection (%) (Klebsiella pneumoniae; Table IX, Gentamicin 10 μg subcutaneously 2 hours after infection, 5 × 10^4 K. pneumoniae): 21%

alpha (N-acetyl-muramyl-D-alanyl-D-isoglutamine), beta, gamma-dipalmitoyl-sn-glycerol [MDP (D-D) - GDP]
retention of the muramylpeptide in the liposomes (in words) [1]: Quite similar observations
protective activity against lethal Klebsiella pneumoniae infection in the mouse (in words) (Klebsiella pneumoniae): protective activity comparable
Survival (10 d) (Candida albicans; [4]): 0/16

CCCCCCCCCCCCCCCC(=O)OC[C@@H](COC(=O)CC[C@@H](NC(=O)[C@H](C)NC(=O)[C@@H](C)O[C@H]1[C@H](O)[C@@H](CO)OC(O)[C@@H]1NC(C)=O)C(N)=O)OC(=O)CCCCCCCCCCCCCCC (stereo partly drawn) [MDP-GDP, alpha (N-acetyl-muramyl-L-alanyl-D-isoglutamine), beta, gamma-dipalmitoyl-sn-glycerol]
Protection (%) (Klebsiella pneumoniae; Table IX, 30 μg intravenously 24 hours before infection, 5 × 10^4 K. pneumoniae): 16%
protective activity when injected in liposomes (in words) (Klebsiella pneumoniae; in liposomes, at 0.1 microgram): the most active
protective activity against lethal Klebsiella pneumoniae infection in the mouse (in words) (Klebsiella pneumoniae): protective activity comparable
Protection (Candida albicans; Table XI, 100 μg/day/4 days i.v.): 19
Survival (10 d) (Candida albicans; [4]): 2/16
Protection (Candida albicans; Table XII, aqueous suspension 100 μg × 4): 75%
Survival (10 d) (Candida albicans; Table XII, aqueous suspension 100 μg × 4 (days -4, -3, -2, -1), 10^6 Candida albicans): 6/8
Primary response 1.21 (bovine serumal-bumin): 3.64 Log 2 of the passive hemagglut
Secondary response 1.36 (bovine serumal-bumin): 10.27 Log 2 of the passive hemagglut
